Assay results taken from patent publication US9844585B2, “Convection enhanced delivery apparatus, method, and application” (YALE UNIVERSITY, priority 2007, dated 2017).
“Also recorded” adds a separate entry of the source.

Legend:
xenografted tumors = details: following collagenase treatment of xenografted tumors; cited from earlier work
[1] = in 0.3% agarose; cited from earlier work
rat brain = details: hyperosmolar mannitol co-infusion; cited from earlier work
[2] = co-infused with 20% mannitol; cited from earlier work
[3] = test system: striatum of the normal rat brain; test: In vivo nanoparticle infusions by CED with enzymatic or hyperosmolar treatment
hyaluronan (HA) = test: Histochemical assessment of hyaluronan degradation (HABP staining); type: in vivo, rat
Procedure: Degradation of HA was determined by staining with hyaluronic acid binding protein (HABP) following 1 μL infusions of 1000 U/mL hyaluronidase into the striatum following the same surgical procedure outlined above. Following degradation times of 30 min, 6, 12, and 24 hr brains were harvested and post-fixed in 4% paraformaldehyde in PBS at 4° C. for 4 days. The tissue was cryo-protected in 30% sucrose for 3 days, frozen at −70° C., and sectioned into 50 μm slices. Tissue slices were immersed in biotinylated HABP ([…], Calbiochem 385911) in PBS and left overnight on an orbital shaker. Slides were then immersed Alexa 555-Streptavidin conjugate (2 mg/mL, Invitrogen S21281) for two hours. Following several washing steps in PBS, stained slices were mounted with ProLong Gold Antifade media (Invitrogen P36930) and covered. Fluorescent images were captured using the same set-up described for nanoparticle imaging.

Molecule: collagenase
- increase in the diffusivity of IgG (xenografted tumors): 100%

Molecule: albumin
- diffusivity D [1]: 8.3×10^−7 cm^2/s

Molecule: OC[C@@H](O)[C@@H](O)[C@H](O)[C@H](O)CO [Mannitol, mannitol]
- increase in the distribution volume of 40 nm liposomes (rat brain): 50%
- distribution volume of 2 kDa dextran [2]: unchanged
- entrainment of nanoparticles in perivascular spaces / branched distribution indicative of perivascular transport ([3]; co-infusion of mannitol with nanoparticles): attenuated; also recorded: not observed
- increase in nanoparticle distribution volume ([3]; co-infusion with 25% mannitol, untreated tissue vs untreated tissue without mannitol): 133%
- increase in nanoparticle distribution volume ([3]; mannitol co-infusion into enzyme-treated (24 hr hyaluronidase) tissue vs enzyme-treated tissue): 23%

Molecule: Hyaluronidase
- degradation of HA by HABP staining (hyaluronan (HA); 30 min and 6 hr after 1 μL of 1000 U/mL): some evidence of degradation
- degradation of HA by HABP staining (hyaluronan (HA); 12 hr and 24 hr after 1 μL of 1000 U/mL): widespread degradation of HA
- degradation of HA by HABP staining (hyaluronan (HA); 24 hr incubation): most complete digestion of HA
- effect on nanoparticle distribution volume ([3]; 30 min digestion with hyaluronidase): no measurable change; also recorded: no measurable effect
- increase in nanoparticle distribution volume ([3]; 24 hr digestion with hyaluronidase vs normal tissue): 70%
